According to US11969497B2, “Method for producing an Entada seed extract enriched with metabolites of interest, extract produced by such a method, and cosmetic and dermocosmetic applications of such an extract” (EXSYMOL, priority 2018, dated 2024):

Columns and labels:
[1] = Photo-induced isomerization of trans-urocanic acid under UV-B (test 1a/1b), HPLC assay; conditions: test 1b
Method: Two series of experiments were performed, the first with a fixed dose UV-B radiation of 300 mJ/cm^2 (test 1a), the second with a varying dose of UV-B radiation (test 1b) and using as a control a synthetic replica of entadamide A, namely the compound “(E)-N-(2-hydroxyethyl)-3-[…]” which is the subject of patent application EP 3103436.
Experimentally, the test was carried out in a 0.01 M citrate buffer of pH 5.5, the slightly acidic pH being more in relation to the acidity of the superficial skin layers in which the trans-urocanic acid marker is located. Thus, the solutions to be irradiated (20 mL), namely the control with or without the extract according to the invention, were placed in glass Petri dishes, uncovered, then subjected at room temperature to UV-B irradiation using a UV-B oven (LabOSI®). Aliquots (500 μL) were then sampled in HPLC vials to be immediately stored protected from light and at low temperature (+4/+8° C.), prior to analysis by HPLC assay. Chromatographic profiles were thus obtained, and the residual amount of trans-urocanic acid was determined.
Experimentally concerning test 1b, the study was carried out in an almost identical manner to test 1a above, with first checking that under the experimental conditions defined, trans-urocanic acid generated a significant amount of cis-urocanic acid which can be measured by HPLC analysis. […]

[2] = ABTS antioxidant test (test 2a); conditions: absorbance 734 nm after 6 minutes
Method: (§1) This solution was then was diluted in water to obtain, under the test conditions, an absorbance of 0.5 at 734 nm. In each well of a 96-well microplate, were placed 100 μL of a solution of the extract according to the invention to be evaluated and 150 μL of oxidized ABTS solution. After 6 minutes, the absorbance was measured at 734 nm.

[3] = DPPH antioxidant test (test 2b); conditions: absorbance 517 nm after 30 minutes
Method: as §1
Experimentally by the DPPH test in each well of a 96 well micro plate, were placed 100 μL of a solution of the active to be evaluated and 100 μL of an ethanol solution of 1,1-diphenyl-2-picrylhydrazyle (DPPH-Aldrich D913-2) at 200 μM. After 30 minutes, the absorbance was measured at 517 nm.

MMP-1 metalloproteinase = experiment: MMP-1 secretion by primary human fibroblasts (NHDF) exposed to blue light, ELISA (test 6); format: cell-based; conditions: 5 mM; blue light 30 J/cm^2; non-irradiated 100, irradiated control 214
Method: Primary human fibroblasts (“NHDF”) were isolated from a mammoplasty from a patient. The NHDFs were cultured in DMEM medium supplemented with 4.5 g/l of glucose and 10% of FCS. They were maintained in an atmosphere at 37° C. and 10% CO2. On D-3, the fibroblasts were inoculated in 24-well plates at a rate of 15,000 cells/cm^2. On D-1, the NHDFs were incubated at 37° C. and 10% CO2 for 24 h with the extract of Entada seeds according to the invention. […] After irradiation, the cells were reincubated at 37° C. and 10% CO2 for an additional 24 h and the culture supernatants were harvested in order to perform an ELISA assay of the MMP-1 metalloproteinase (Abcam kit, ab100603). The results obtained were normalized with respect to the quantity of cells per condition and subjected to statistical analysis in triplicate.

SMILES: O=C(O)Cc1cc(O)ccc1O[C@@H]1O[C@H](CO)[C@@H](O)[C@H](O)[C@H]1O [phaseoloidin, 2-O-β-D-glucopyranoside derivative of homogentisic acid]
- contribution of non-hydrolyzed phaseoloidin in the photoprotective activity of the extract against UV-B radiation [1]: > 25%
- EC50 [2]: 8.3 µM
- EC50 [3]: 540 µM

SMILES: CC(=O)N[C@@H](CS)C(=O)O [N-acetyl-L-cysteine (NAC), N-acetyl-L-cysteine]
- % of MMP-1 secreted (MMP-1 metalloproteinase): 61%

SMILES: O=C1O[C@H]([C@@H](O)CO)C(O)=C1O [ascorbic acid]
- EC50 [2]: 24 µM
- EC50 [3]: 25 µM
